According to the supplement of paper PMC11451515:

Tested on: P12-Ichikawa
Assay: cell viability relative to DMSO control; higher = less cytotoxic
Conditions: 48 h
Summary of the method: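 Three leukemia lines were tested: NOMO1 and SEM at 500 cells/well and P12-Ichikawa at 1000 cells/well. Each was adapted for at least four passages in each medium and seeded in 5 μl in 1536-well plates, and library compounds in DMSO were pin-dosed from 47 μM to 0.79 nM in 11 threefold steps. After 48 h at 37°C, CellTiter-Glo One luminescence was read. Viability is a percentage relative to DMSO wells on each plate, with cell-free wells as background.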

[1] = HPLM + 10% dialyzed FBS, 0.000781 µM
[2] = HPLM + 10% dialyzed FBS, 0.00234 µM
[3] = HPLM + 10% dialyzed FBS, 0.00702 µM
[4] = HPLM + 10% dialyzed FBS, 0.0211 µM
[5] = HPLM + 10% dialyzed FBS, 0.0632 µM
[6] = HPLM + 10% dialyzed FBS, 0.19 µM
[7] = HPLM + 10% dialyzed FBS, 0.569 µM
[8] = HPLM + 10% dialyzed FBS, 1.71 µM
[9] = HPLM + 10% dialyzed FBS, 5.12 µM
[10] = HPLM + 10% dialyzed FBS, 15.4 µM
[11] = HPLM + 10% dialyzed FBS, 46.1 µM
[12] = RPMI 5 mM glucose + 10% FBS, 0.000781 µM
[13] = RPMI 5 mM glucose + 10% FBS, 0.00234 µM
[14] = RPMI 5 mM glucose + 10% FBS, 0.00702 µM
[15] = RPMI 5 mM glucose + 10% FBS, 0.0211 µM
[16] = RPMI 5 mM glucose + 10% FBS, 0.0632 µM
[17] = RPMI 5 mM glucose + 10% FBS, 0.19 µM
[18] = RPMI 5 mM glucose + 10% FBS, 0.569 µM
[19] = RPMI 5 mM glucose + 10% FBS, 1.71 µM
[20] = RPMI 5 mM glucose + 10% FBS, 5.12 µM
[21] = RPMI 5 mM glucose + 10% FBS, 15.4 µM
[22] = RPMI 5 mM glucose + 10% FBS, 46.1 µM
[23] = RPMI 5 mM glucose + 10% dialyzed FBS, 0.000781 µM
[24] = RPMI 5 mM glucose + 10% dialyzed FBS, 0.00234 µM
[25] = RPMI 5 mM glucose + 10% dialyzed FBS, 0.00702 µM
[26] = RPMI 5 mM glucose + 10% dialyzed FBS, 0.0211 µM
[27] = RPMI 5 mM glucose + 10% dialyzed FBS, 0.0632 µM
[28] = RPMI 5 mM glucose + 10% dialyzed FBS, 0.19 µM
[29] = RPMI 5 mM glucose + 10% dialyzed FBS, 0.569 µM
[30] = RPMI 5 mM glucose + 10% dialyzed FBS, 1.71 µM
[31] = RPMI 5 mM glucose + 10% dialyzed FBS, 5.12 µM
[32] = RPMI 5 mM glucose + 10% dialyzed FBS, 15.4 µM
[33] = RPMI 5 mM glucose + 10% dialyzed FBS, 46.1 µM

Row | Structure (SMILES) | cell viability [1] | cell viability [2] | cell viability [3] | cell viability [4] | cell viability [5] | cell viability [6] | cell viability [7] | cell viability [8] | cell viability [9] | cell viability [10] | cell viability [11] | cell viability [12] | cell viability [13] | cell viability [14] | cell viability [15] | cell viability [16] | cell viability [17] | cell viability [18] | cell viability [19] | cell viability [20] | cell viability [21] | cell viability [22] | cell viability [23] | cell viability [24] | cell viability [25] | cell viability [26] | cell viability [27] | cell viability [28] | cell viability [29] | cell viability [30] | cell viability [31] | cell viability [32] | cell viability [33]
1 | CC(=O)O[C@@]1(CC[C@H]2[C@@H]3\C=C(C)/C4=C/C(=O)CC[C@]4(C)[C@H]3CC[C@]12C)C(C)=O | 99.7% | 115% | 109% | 114% | 109% | 117% | 112% | 112% | 115% | 106% | 89.1% | 101% | 107% | 110% | 117% | 115% | 117% | 120% | 109% | 100% | 99.5% | 85.5% | 94.9% | 102% | 101% | 112% | 103% | 108% | 106% | 107% | 98.2% | 93.2% | 79%
2 | NC(CO)(CO)CCc1ccc(Sc2cccc(OCc3ccccc3)c2)cc1Cl | 99.1% | 101% | 110% | 114% | 115% | 122% | 88.5% | 106% | 76.2% | 18.4% | 6.24% | 91.8% | 99.7% | 101% | 111% | 102% | 102% | 86.4% | 104% | 72.1% | 34.9% | 5.17% | 101% | 112% | 99.6% | 116% | 113% | 109% | 89.9% | 100% | 70.3% | 45.7% | 5.62%
3 | C1CCC(C(CC2CCCCN2)C2CCCCC2)CC1 (centres undefined) | 115% | 117% | 124% | 119% | 128% | 124% | 129% | 127% | 119% | 123% | 88.3% | 118% | 123% | 124% | 115% | 128% | 134% | 126% | 119% | 131% | 106% | 54.2% | 109% | 127% | 107% | 122% | 123% | 124% | 122% | 126% | 117% | 115% | 67.7%
4 | CC1(C)CCC(=C(CN2CCN(CC2)C3=CC=C(C=C3)C(=O)N[S+]([O-])(=O)C4=CC(=C(N[C@H](CCN5CCOCC5)CSC6=CC=CC=C6)C=C4)[S+]([O-])(=O)C(F)(F)F)\C1)/C7=CC=C(Cl)C=C7 | 116% | 120% | 121% | 122% | 92.5% | 40.9% | 20% | 6.68% | 7.29% | 7.3% | 4.74% |  |  |  |  |  |  |  |  |  |  |  | 120% | 124% | 127% | 122% | 109% | 73.4% | 39.1% | 7.42% | 7.07% | 6.25% | 4.69%
5 | COc1cc(Nc2ncc(F)c(Nc3ccc4c(n3)NC(=O)C(C)(C)O4)n2)cc(OC)c1OC | 107% | 112% | 120% | 114% | 122% | 118% | 129% | 101% | 44.8% | 4.38% | 4.34% | 114% | 107% | 126% | 112% | 119% | 126% | 113% | 114% | 62.3% | 5.34% | 5.36% | 110% | 122% | 113% | 122% | 121% | 121% | 137% | 112% | 62.4% | 5.87% | 5.61%
6 | CCN(CC)CCCCNc1nc2cc(Cl)c(Cl)cc2nc1-c1ccc(-c2cccs2)s1 | 94.2% | 114% | 75.6% | 114% | 109% | 134% | 118% | 121% | 115% | 123% | 59.9% | 99.9% | 119% | 64.8% | 123% | 120% | 125% | 134% | 125% | 123% | 114% | 5.94% | 107% | 116% | 78% | 118% | 120% | 129% | 123% | 127% | 121% | 108% | 6.07%
7 | O=C(Nc1cccc(Nc2ncc(Br)c(NCCc3cnc[nH]3)n2)c1)N1CCCC1 |  |  |  |  |  |  |  |  |  |  |  | 98% | 103% | 110% | 90.7% | 88.1% | 79.7% | 34.5% | 15.2% | 18.8% | 33.5% | 3.48% | 111% | 104% | 107% | 103% | 99.5% | 92.6% | 95.1% | 20.3% | 27.2% | 34.6% | 9.06%
8 | CCCCNc1cc(C(=O)O)cc([S+](N)(=O)[O-])c1Oc1ccccc1 | 117% | 116% | 118% | 116% | 124% | 120% | 121% | 118% | 117% | 128% | 127% |  |  |  |  |  |  |  |  |  |  |  | 111% | 119% | 115% | 115% | 118% | 117% | 116% | 113% | 124% | 124% | 116%
9 | OC[C@H]1O[C@H]([C@@H](F)[C@@H]1O)N2\C=C/C(=O)NC2=O | 110% | 108% | 108% | 110% | 108% | 112% | 114% | 102% | 99.6% | 98% | 94.1% | 99% | 108% | 108% | 91.6% | 97.9% | 114% | 106% | 102% | 92.1% | 102% | 106% | 109% | 93.5% | 104% | 100% | 99.4% | 97% | 105% | 96% | 93.6% | 93.5% | 88.6%
